Measured values published in patent US6960597B2, “Aza-bridged-bicyclic amino acid derivatives as α4 integrin antagonists” (Orth-McNeil Pharmaceutical, Inc., priority 2000, dated 2005).
Read-outs that look alike come from different tables or passages of the source.

What was measured:
α4β1 integrin receptor = target: T1, α4β1 integrin receptor (Homo sapiens, UniProt P05556+P13612); assay: Ramos Cell Adhesion Assay (α4β1 Mediated Adhesion/VCAM-1); type: cell-based
T1 construct: Ramos Cell Adhesion Assay (α4β1 Mediated Adhesion/VCAM-1); endogenous in cells; host or cells: Ramos cells
Description: Ramos Cell Adhesion Assay (α4β1 Mediated Adhesion/VCAM-1)
(§1) Immulon 96 well plates (Dynex) were coated with 100 μL recombinant hVCAM-1 at 4.0 μg/mL in 0.05 M NaCO3 buffer pH 9.0 overnight at 4° C. (R&D Systems). Plates were washed 3 times in PBS with 1% BSA and blocked for 1 h @ room temperature in this buffer. PBS was removed and compounds to be tested (50 μL) were added at 2× concentration. Ramos cells, (50 μL at 2×10^6/mL) labeled with 5 μM Calcein AM (Molecular Probes) for 1 h at 37° C., were added to each well and allowed to adhere for 1 h at room temperature. Plates were washed 3× in PBS+1% BSA and cells were lysed for 15 minutes in 100 μL of 1 M Tris pH 8.0 with 1% SDS. The plate was read at 485 nm excitation and 530 nm emission.

human α4β7 = target: T2, human α4β7 (Homo sapiens, UniProt P13612+P26010); assay: α4β7-K562 Cell Adhesion Assay (α4β7 Mediated Adhesion/VCAM-1); type: cell-based
T2 construct: expressed in transfected cells
T2 sequence (P13612 34-1032): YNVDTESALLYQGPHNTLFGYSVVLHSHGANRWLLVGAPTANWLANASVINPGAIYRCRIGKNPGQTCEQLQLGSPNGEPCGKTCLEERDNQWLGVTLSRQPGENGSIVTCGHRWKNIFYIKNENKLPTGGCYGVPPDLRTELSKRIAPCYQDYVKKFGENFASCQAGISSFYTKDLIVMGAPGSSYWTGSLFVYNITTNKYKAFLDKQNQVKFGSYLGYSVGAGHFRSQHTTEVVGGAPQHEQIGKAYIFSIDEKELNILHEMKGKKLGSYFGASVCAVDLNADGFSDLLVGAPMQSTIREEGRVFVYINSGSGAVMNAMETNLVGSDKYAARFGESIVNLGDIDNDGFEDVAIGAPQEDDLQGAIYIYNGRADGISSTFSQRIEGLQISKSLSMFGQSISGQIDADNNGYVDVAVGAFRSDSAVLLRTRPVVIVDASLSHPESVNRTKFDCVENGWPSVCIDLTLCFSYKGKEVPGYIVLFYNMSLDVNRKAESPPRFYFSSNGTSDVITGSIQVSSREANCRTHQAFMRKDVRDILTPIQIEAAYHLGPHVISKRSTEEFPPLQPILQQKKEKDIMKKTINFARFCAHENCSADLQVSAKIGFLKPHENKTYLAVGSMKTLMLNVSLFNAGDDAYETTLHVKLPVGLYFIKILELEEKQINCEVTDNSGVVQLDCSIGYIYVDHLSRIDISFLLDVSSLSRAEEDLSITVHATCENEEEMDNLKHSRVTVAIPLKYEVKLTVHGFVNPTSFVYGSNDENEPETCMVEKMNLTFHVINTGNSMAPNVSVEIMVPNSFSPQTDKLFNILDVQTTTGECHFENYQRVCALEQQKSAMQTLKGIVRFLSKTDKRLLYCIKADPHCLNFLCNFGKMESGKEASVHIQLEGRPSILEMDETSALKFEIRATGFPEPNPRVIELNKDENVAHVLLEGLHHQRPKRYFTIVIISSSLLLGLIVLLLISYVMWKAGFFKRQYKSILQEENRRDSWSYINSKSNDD
T2 sequence (P26010 20-798): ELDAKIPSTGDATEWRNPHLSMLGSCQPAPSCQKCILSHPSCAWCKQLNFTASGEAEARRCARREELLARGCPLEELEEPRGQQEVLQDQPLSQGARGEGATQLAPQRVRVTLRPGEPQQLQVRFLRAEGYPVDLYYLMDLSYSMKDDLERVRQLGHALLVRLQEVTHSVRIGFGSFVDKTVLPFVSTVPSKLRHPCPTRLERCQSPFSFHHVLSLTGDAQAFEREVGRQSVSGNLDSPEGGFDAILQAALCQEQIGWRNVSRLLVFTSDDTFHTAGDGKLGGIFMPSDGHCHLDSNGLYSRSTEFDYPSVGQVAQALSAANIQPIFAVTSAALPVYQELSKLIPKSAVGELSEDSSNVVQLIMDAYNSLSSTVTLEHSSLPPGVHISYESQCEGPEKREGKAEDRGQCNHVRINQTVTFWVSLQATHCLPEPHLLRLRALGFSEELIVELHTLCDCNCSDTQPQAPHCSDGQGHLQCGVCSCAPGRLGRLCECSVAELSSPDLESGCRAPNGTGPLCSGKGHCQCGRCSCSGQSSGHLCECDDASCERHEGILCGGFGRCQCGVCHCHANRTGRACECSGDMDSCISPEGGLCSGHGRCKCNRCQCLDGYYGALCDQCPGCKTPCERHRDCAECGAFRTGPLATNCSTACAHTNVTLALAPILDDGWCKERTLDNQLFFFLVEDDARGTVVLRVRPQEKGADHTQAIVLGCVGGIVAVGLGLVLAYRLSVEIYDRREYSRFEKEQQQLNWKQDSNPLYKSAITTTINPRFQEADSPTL
Description: α4β7-K562 Cell Adhesion Assay (α4β7 Mediated Adhesion/VCAM-1)
as §1, with “A stable cell line of K562 cells expressing human α4β7,” for “Ramos cells,”

[1] = Table III, read-out: Inhibition of Binding of Ramos Cells to Immobilized VCAM-1 IC50
[2] = Table IV, read-out: Inhibition of Binding of K562 Cells to Immobilized VCAM-1 IC50
[3] = Table IV, μM, read-out: Inhibition of Binding of K562 Cells to Immobilized VCAM-1 IC50
[4] = Antagonist IC50 Activity α4β1, Table I, racemic mixtures and resolved (S,S) and (R,S) diastereomers
[5] = Inhibition of Binding of Ramos Cells to Immobilized VCAM-1 IC50, Table III

T1 sequence (P05556 21-798, one chain of several): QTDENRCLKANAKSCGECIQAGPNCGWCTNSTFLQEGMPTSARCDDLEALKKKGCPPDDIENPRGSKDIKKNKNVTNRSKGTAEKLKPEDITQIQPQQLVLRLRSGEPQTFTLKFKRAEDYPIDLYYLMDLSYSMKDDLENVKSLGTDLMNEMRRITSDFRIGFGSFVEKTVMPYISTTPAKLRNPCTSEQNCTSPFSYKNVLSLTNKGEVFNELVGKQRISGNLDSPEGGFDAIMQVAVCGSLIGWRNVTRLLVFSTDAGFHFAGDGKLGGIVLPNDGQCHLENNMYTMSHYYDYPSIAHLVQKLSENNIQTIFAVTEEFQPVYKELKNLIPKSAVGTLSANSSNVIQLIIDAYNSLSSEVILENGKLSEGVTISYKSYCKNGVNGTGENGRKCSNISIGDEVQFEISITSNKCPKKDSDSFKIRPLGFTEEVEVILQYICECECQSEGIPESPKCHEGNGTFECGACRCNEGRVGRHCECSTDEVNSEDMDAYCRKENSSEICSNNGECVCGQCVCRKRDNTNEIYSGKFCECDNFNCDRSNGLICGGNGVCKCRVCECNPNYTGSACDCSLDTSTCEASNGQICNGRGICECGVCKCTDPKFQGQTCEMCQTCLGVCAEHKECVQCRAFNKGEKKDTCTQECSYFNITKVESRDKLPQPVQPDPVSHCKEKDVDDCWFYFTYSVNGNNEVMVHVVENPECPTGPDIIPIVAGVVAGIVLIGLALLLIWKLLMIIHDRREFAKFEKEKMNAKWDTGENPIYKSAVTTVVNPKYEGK

Row | Structure (SMILES) | IC50 (α4β1 integrin receptor; [1]) [nM] | IC50 (human α4β7; [2]) [µM] | other results
1 | CCOc1ccc2ccccc2c1C(=O)Nc1ccc(C[C@H](NC(=O)[C@@H]2C3CCC(CC3)N2S(=O)(=O)c2ccccc2)C(=O)O)cc1 [Cpd 65, 4-[[(2-ethoxy-1-naphthalenyl)carbonyl]amino]-N-[[(3S)-2-(phenylsulfonyl)-2-azabicyclo[2.2.2]oct-3-yl]carbonyl]-L-phenylalanine] | 193 | 0.394 | 
2 | O=C(N[C@@H](Cc1ccc(OC(=O)N2CCOCC2)cc1)C(=O)O)C1C2CCC(CC2)N1S(=O)(=O)c1ccccc1 (stereo partly drawn) [Cpd 56, O-(4-morpholinylcarbonyl)-N-[[2-(phenylsulfonyl)-2-azabicyclo[2.2.2]oct-3-yl]carbonyl]-L-tyrosine] | 139 | 0.047 | 
3 | O=C(N[C@@H](Cc1ccc(OCc2c(Cl)cccc2Cl)cc1)C(=O)O)C1C2C=CC(CC2)N1S(=O)(=O)c1ccccc1 (stereo partly drawn) [Cpd 40, O-[(2,6-dichlorophenyl)methyl]-N-[[2-(phenylsulfonyl)-2-azabicyclo[2.2.2]oct-5-en-3-yl]carbonyl]-L-tyrosine] | 293 | 2.51 | 
4 | Cc1ccc(S(=O)(=O)N2C3CCC(CC3)C2C(=O)N[C@@H](Cc2ccc(NC(=O)c3ccccc3)cc2)C(=O)O)cc1 (stereo partly drawn) [Cpd 25, 4-(benzoylamino)-N-[[2-[(4-methylphenyl)sulfonyl]-2-azabicyclo[2.2.2]oct-3-yl]carbonyl]-L-phenylalanine] | 903 |  | IC50 (human α4β7; [3]): > 10 µM
5 | O=C(Nc1ccc(C[C@H](NC(=O)C2C3CCC(CC3)N2S(=O)(=O)c2ccccc2)C(=O)O)cc1)c1ccncc1 (stereo partly drawn) [Cpd 50, 4-[(4-pyridinylcarbonyl)amino]-N-[[2-(phenylsulfonyl)-2-azabicyclo[2.2.2]oct-3-yl]carbonyl]-L-phenylalanine] | 55 | 0.81 | 
6 | CN(C)C(=O)Oc1ccc(C[C@H](NC(=O)C2C3CCC(CC3)N2S(=O)(=O)c2ccccc2)C(=O)O)cc1 (mixture of isomers) [Cpd 52, O-[(dimethylamino)carbonyl]-N-[[2-(phenylsulfonyl)-2-azabicyclo[2.2.2]oct-3-yl]carbonyl]-L-tyrosine] |  |  | IC50 (α4β1 integrin receptor; [4]): 124 nM; IC50 (α4β1 integrin receptor; [5]): 124 nM; IC50 (human α4β7): 0.998 µM
7 | COc1cccc(OC)c1C(=O)Nc1ccc(C[C@H](NC(=O)C2C3CCC(CC3)N2S(=O)(=O)c2ccc(F)cc2)C(=O)O)cc1 (stereo partly drawn) [Cpd 55, 4-[(2,6-dimethoxybenzoyl)amino]-N-[[2-[(4-fluorophenyl)sulfonyl]-2-azabicyclo[2.2.2]oct-3-yl]carbonyl]-L-phenylalanine] | 303 | 0.091 | 
8 | O=C(Nc1ccc(C[C@H](NC(=O)C2C3CCC(CC3)N2S(=O)(=O)c2ccccc2)C(=O)O)cc1)Nc1c(Cl)cccc1Cl (stereo partly drawn) [Cpd 28, 4-[[[(2,6-dichlorophenyl)amino]carbonyl]amino]-N-[[2-(phenylsulfonyl)-2-azabicyclo[2.2.2]oct-3-yl]carbonyl]-L-phenylalanine] | 1600 |  | IC50 (human α4β7; [3]): > 5 µM
9 | CC1(C)C(C(=O)Nc2ccc(C[C@H](NC(=O)[C@@H]3C4CCC(CC4)N3S(=O)(=O)c3ccccc3)C(=O)O)cc2)C1(C)C [Cpd 68, 4-[[(2,2,3,3-tetramethylcyclopropyl)carbonyl]amino]-N-[[(3S)-2-(phenylsulfonyl)-2-azabicyclo[2.2.2]oct-3-yl]carbonyl]-L-phenylalanine] | 873 |  | IC50 (human α4β7; [3]): > 50 µM
10 | CN(C)C(=O)Oc1ccc(C[C@H](NC(=O)[C@@H]2C3CCC(CC3)N2S(=O)(=O)c2ccccc2)C(=O)O)cc1 [Cpd 52a, O-[(dimethylamino)carbonyl]-N-[[(3S)-2-(phenylsulfonyl)-2-azabicyclo[2.2.2]oct-3-yl]carbonyl]-L-tyrosine] |  |  | IC50 (α4β1 integrin receptor; [4]): 45 nM; IC50 (α4β1 integrin receptor; [5]): 40 nM; IC50 (human α4β7): 0.436 µM; IC50 (human α4β7; read-out: Inhibition of Binding of K562 Cells to Immobilized VCAM-1 IC50, Table IV): 0.436 µM
11 | O=C(Nc1ccc(C[C@H](NC(=O)[C@H]2C3CCC(C3)N2S(=O)(=O)c2ccccc2)C(=O)O)cc1)c1c(Cl)cccc1Cl (stereo partly drawn) [Cpd 16b, 4-[(2,6-dichlorobenzoyl)amino]-N-[[(3R)-2-(phenylsulfonyl)-2-azabicyclo[2.2.1]hept-3-yl]carbonyl]-L-phenylalanine] | 240 |  | IC50 (α4β1 integrin receptor; Table I, racemic mixtures and resolved (S,S) and (R,S) diastereomers, read-out: Antagonist IC50 Activity α4β1): 240 nM; IC50 (human α4β7; Table I, racemic mixtures and resolved (S,S) and (R,S) diastereomers, read-out: Antagonist IC50 Activity α4β7): 0.393 µM
12 | Cc1ccc(S(=O)(=O)N2C3CCC(CC3)C2C(=O)N[C@@H](Cc2ccc(C#Cc3ccccc3)cc2)C(=O)O)cc1 (stereo partly drawn) [Cpd 24, 4-(phenylethynyl)-N-[[2-[(4-methylphenyl)sulfonyl]-2-azabicyclo[2.2.2]oct-3-yl]carbonyl]-L-phenylalanine] | 1100 |  | IC50 (human α4β7; [3]): > 10 µM
13 | CN(C)C(=O)Nc1ccc(C[C@H](NC(=O)C2C3CCC(CC3)N2S(=O)(=O)c2ccccc2)C(=O)O)cc1 (stereo partly drawn) [Cpd 61, 4-[[(dimethylamino)carbonyl]amino]-N-[[2-(phenylsulfonyl)-2-azabicyclo[2.2.2]oct-3-yl]carbonyl]-L-phenylalanine] | 56 |  | 
14 | O=C(Nc1ccc(C[C@H](NC(=O)C2C3CCC(CC3)N2S(=O)(=O)c2ccccc2)C(=O)O)cc1)c1c(F)c(F)cc(F)c1F (stereo partly drawn) [Cpd 44, 4-[(2,3,5,6-tetrafluorobenzoyl)amino]-N-[[2-(phenylsulfonyl)-2-azabicyclo[2.2.2]oct-3-yl]carbonyl]-L-phenylalanine] | 309 |  | 
15 | O=C(Nc1ccc(C[C@H](NC(=O)[C@@H]2C3CCC(CC3)N2S(=O)(=O)c2ccccc2)C(=O)O)cc1)c1c(Cl)cncc1Cl [Cpd 60, 4-[[(3,5-dichloro-4-pyridinyl)carbonyl]amino]-N-[[(3S)-2-(phenylsulfonyl)-2-azabicyclo[2.2.2]oct-3-yl]carbonyl]-L-phenylalanine] | 9 |  | 
